Several values for one entry are separate records, joined by “and”; a condition that tells them apart may be missing. Equal entries are not always repeated. Entries after “also recorded” stand apart in the source; their conditions may differ. Where two headings read alike, the source gives them in different places.

These results are taken from patent US20070149456A1, “Epithelial sodium channel inhibiting agents and uses therefor” (University of Pittsburgh, priority 2005, published 2007).

The test concerns the target T1, endogenous ENaC in HAE cells (Homo sapiens, UniProt P37088+P51168+P51170).
T1 construct: endogenous in cells; host or cells: primary human airway (bronchial) epithelial cells from transplant or donor lungs
The experiment in a line: Amiloride-sensitive short circuit current in primary human airway epithelial (HAE) cell monolayers, Ussing chamber. The class given is cell-based. The conditions noted are these: for Ki: HBE cells; for inhibition of amiloride sensitive short circuit currents: HAE, increasing concentrations of peptide. An excerpt:
Primary Cultures of HAE Cells—HAE cells were obtained from excess pathological tissue remaining after lung transplantation or from organ donor lungs deemed not suitable for transplantation under a protocol approved by the University of Pittsburgh […] Review Board. All cells were isolated from second through sixth generation bronchi and grown on permeable Transwell supports (Coming Inc.) as previously described (Devor, D. C., and Pilewski, J. M. (1999), UTP inhibits Na^+ absorption in wild-type and DeltaF508 CFTR-expressing human bronchial epithelia, Am. J. Physiol. 276, C827-C837 31. ).
Short Circuit Current Measurements—Cell culture inserts were mounted in modified Ussing chambers (Harvard Apparatus, Holliston, Mass.), and the monolayers were continuously short-circuited with a voltage/current clamp system (Physiologic Instruments, San Diego, Calif.). A 2-mV bipolar pulse was applied periodically to measure the resistance of the monolayer. As previously described by Bridges et al. (Bridges, R. J., Newton, B. B., Pilewski, J. M., Devor, D. C., Poll, C. T., and Hall, R. L. (2001), Na+ transport in normal and CF human bronchial epithelial cells is inhibited by BAY 39-9437, Am. J. Physiol. 281, L16-L23 32, Na^+ transport in normal and CF human bronchial epithelial cells is inhibited by BAY 39-9437), the bath solution contained (in mM) 120 NaCl, 25 NaHCO3, 3.3 KH2PO4, 0.8 K2HPO4, 1.2 MgCl2, 1.2 CaCl2, and 10 glucose. The pH of this solution was 7.4 when gassed with a mixture of 95% O2-5% CO2 at 37° C.
Primary cultures of HAE cells grown on permeable membrane supports and mounted in modified Ussing chambers were continuously short-circuited by a voltage clamp amplifier (Physiologic Instruments, San Diego, Calif.). Monolayers were exposed to increasing concentrations of either the γ-peptide (closed circles) or a scrambled peptide (open circles). […] (n=8-9).
Vectors and Cell Culture—Wild-type, C-terminal and double epitope tagged mouse ENaC subunit cDNAs were previously described (Hughey, R. P., Mueller, G. M., Bruns, J. B., Kinlough, C. L., Poland, P. A., Harkleroad, K. L., Carattino, M. D., and Kleyman, T. R. (2003) J Biol Chem 278, 37073-37082 and Ahn, Y. J., Brooker, D. R., Kosari, F., Harte, B. J., Li, J., Mackler, S. A., and Kleyman, T. R. (1999), Cloning and functional expression of the mouse epithelial sodium channel, Am J Physiol 277, F121-129). The γ subunit mutations were generated in pcDNA3.1 (+) using a standard two-step PCR method. A cDNA clone (IMAGE #: 3600399) encoding full length mouse prostasin was obtained from Open Biosystems (Huntsville, Ala.) and sub-cloned into pcDNA3.1 (+) (Invitrogen, Carlsbad, Calif.). MDCK type 1 cells were a gift from Barry M. Gumbiner (Memorial Sloan-Kettering Cancer Center, New York) and were cultured as previously described (Lavelle, J. P., Negrete, H. O., Poland, P. A., Kinlough, C. L., Meyers, S. D., Hughey, R. P., and Zeidel, M. L. (1997), Low permeabilities of MDCK cell monolayers: a model barrier epithelium, Am J Physiol 273, F67-75). CCD (mpkCCDc14) cells were a gift from Alain Vandewalle (Institut National de la Santéet de la Recherche Médicale, Paris, France) and were cultured as previously described (Bens, M., Vallet, V., Cluzeaud, F., Pascual-Letallec, L., Kahn, A., Rafestin-Oblin, M. E., Rossier, B. C., and Vandewalle, A. (1999) J Am Soc Nephrol 10, 923-934). HAE cells were isolated and cultured as described (Devor, D. C., Bridges, R. J., and Pilewski, J. M. (2000), Pharmacological modulation of ion transport across wild-type and DeltaF508 CFTR-expressing human bronchial epithelia, Am J Physiol Cell Physiol 279, C461-479). […]

T1 sequence (P37088 1-178): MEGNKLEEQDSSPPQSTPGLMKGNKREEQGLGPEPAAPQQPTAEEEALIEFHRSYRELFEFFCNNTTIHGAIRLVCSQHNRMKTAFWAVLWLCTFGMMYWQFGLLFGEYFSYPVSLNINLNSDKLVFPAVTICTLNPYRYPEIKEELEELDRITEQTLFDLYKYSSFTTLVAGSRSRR
T1 sequence (P37088 205-669): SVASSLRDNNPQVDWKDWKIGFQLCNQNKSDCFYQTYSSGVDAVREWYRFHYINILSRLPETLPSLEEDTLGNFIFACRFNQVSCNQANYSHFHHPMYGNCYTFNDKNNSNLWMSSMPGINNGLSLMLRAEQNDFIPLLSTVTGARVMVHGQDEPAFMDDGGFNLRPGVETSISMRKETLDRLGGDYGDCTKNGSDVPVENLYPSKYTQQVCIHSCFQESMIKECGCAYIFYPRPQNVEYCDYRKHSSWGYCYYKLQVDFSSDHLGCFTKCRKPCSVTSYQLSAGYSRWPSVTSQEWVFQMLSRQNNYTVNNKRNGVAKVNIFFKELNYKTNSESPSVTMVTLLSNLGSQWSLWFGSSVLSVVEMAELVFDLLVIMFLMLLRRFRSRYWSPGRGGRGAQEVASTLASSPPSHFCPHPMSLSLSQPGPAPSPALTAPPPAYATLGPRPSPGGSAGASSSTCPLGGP
T1 sequence (P51168 whole entry): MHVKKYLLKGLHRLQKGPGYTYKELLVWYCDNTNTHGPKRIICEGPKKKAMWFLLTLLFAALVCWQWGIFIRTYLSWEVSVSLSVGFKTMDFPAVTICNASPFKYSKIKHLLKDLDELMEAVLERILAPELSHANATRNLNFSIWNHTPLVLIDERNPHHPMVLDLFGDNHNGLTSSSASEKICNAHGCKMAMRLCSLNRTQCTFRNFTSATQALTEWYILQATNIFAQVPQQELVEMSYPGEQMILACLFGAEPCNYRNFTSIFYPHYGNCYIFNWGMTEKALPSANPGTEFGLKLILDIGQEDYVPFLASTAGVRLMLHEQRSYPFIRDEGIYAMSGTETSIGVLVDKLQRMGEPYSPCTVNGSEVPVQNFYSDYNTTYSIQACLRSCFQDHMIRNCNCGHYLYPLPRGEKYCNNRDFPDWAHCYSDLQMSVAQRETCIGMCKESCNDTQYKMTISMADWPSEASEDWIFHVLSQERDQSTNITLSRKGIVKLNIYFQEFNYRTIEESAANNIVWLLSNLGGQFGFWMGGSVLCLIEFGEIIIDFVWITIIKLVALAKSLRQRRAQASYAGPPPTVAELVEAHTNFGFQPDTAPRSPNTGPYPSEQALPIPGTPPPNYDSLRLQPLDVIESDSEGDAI
T1 sequence (P51170 1-138): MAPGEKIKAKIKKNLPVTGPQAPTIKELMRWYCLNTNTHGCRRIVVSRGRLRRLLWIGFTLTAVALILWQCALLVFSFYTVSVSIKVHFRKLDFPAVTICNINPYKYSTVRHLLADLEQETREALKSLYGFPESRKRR
T1 sequence (P51170 182-649): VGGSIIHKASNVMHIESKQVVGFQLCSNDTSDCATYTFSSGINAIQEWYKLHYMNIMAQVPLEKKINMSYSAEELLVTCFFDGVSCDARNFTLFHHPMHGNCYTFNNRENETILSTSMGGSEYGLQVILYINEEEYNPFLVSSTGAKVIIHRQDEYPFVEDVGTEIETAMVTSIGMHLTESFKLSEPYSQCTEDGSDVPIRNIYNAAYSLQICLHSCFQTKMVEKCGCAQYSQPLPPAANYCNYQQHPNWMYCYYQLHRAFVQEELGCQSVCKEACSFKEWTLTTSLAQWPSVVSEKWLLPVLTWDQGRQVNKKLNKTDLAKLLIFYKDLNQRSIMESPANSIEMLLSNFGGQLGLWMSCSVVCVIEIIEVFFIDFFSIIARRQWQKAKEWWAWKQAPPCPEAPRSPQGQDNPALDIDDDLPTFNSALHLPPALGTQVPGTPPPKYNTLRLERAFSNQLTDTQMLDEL

On to “Ac-DLRGALPHPLQRLRTPPPPNPARSAR-NH2 [α-26]”, for which, under “stated jointly for HBE or mpkCCDc14, read-out: Ki, block of endogenous ENaC activity”, the Ki lay within 50000 to 100000 nM.

By IC50 is commonly meant the concentration at which inhibition is half-maximal. Consider “Ac-EAGSMRSTWEGTPPRFLNLIPLLVFNENEKGKARDFFTGRKRK-NH2 [γ-43]”, for which, for the setting “HAE primary cultures, nonlinear curve fitting, read-out: IC50, inhibition of short circuit currents”, the IC50 was 2000 nM and 2000 to 3000 nM. In addition, the “inhibition of amiloride sensitive short circuit currents” value by setting is: (listed as γ cleavage product) “inhibited in a dose dependent manner”; (listed as γ-peptide) “potent inhibitor; also recorded: strong inhibition”. Besides, the Ki (stated jointly for HBE and mpkCCDc14, read-out: apparent Ki, inhibition of endogenous ENaC activity) is around 2000 nM.
